This is an account of results in paper PMC6920875, “Dithiocarbamate as a Valuable Scaffold for the Inhibition of Metallo-β-Lactmases” (Biomolecules, 2019).

Some results are limits rather than exact numbers.

Data set [1] has as its target T1, ImiS (Aeromonas veronii, UniProt O31272).
T1 construct: made in house; host or cells: E. coli BL21 (DE3), plasmid pET-26b-ImiS
The data set is described as follows: biochemical. Further details: species or system Aeromonas veronii bv. sobria. To be noted: read-out: inhibition against ImiS. The method, then:
The dithiocarbamates, MβLs and substrates samples were prepared with 30 mM Tris, pH 7.0. […] Enzymes and inhibitors were pre-incubated for 5 min before adding substrate. […] The IC50 values were nonlinearly fitted by plotting the average percentage inhibition against inhibitor concentration. The inhibition modes of DC1 to ImiS, NDM-1 and L1 were assayed by generating Lineweaver–Burk plots, and Ki values were obtained by fitting initial velocity versus substrate concentration at each inhibitor concentration, using SigmaPlot 12.0 (Systat Software Inc., San Jose, CA, USA).
To evaluate the inhibitory activity of the dithiocarbamates, we over-expressed and purified MβLs NDM-1, VIM-2 and IMP-1 (B1), ImiS (B2), and L1 (B3) from three subclasses as previously reported. The inhibition experiments were performed with an Agilent UV8453 spectrometer. […] The concentrations of inhibitors were varied between 0 and 200 μM. The initial reaction rates were determined in the absence and presence of inhibitors in triplicate, and the generated average values were recorded.

For data set [2], the target named is T1, ImiS. The data set is described as follows: Isothermal titration calorimetry (ITC) of MβL-catalysed substrate hydrolysis. To be noted: 100 nM enzyme, 1 mM imipenem, inhibitor 0-200 μM, 25 °C. The data set is classed as biochemical, Aeromonas veronii bv. sobria. On the procedure:
Isothermal titration calorimetry (ITC) assays were performed on a Malvern MicroCal iTC 200 instrument (Malvern Instruments, Malvern, UK) at 25 °C, by a single injection mode. During ITC experiments the reference cell was filled with degassed water. The MβLs, substrates, and inhibitor DC1 were prepared with 50 mM Tris, pH 7.0. The concentration of MβLs used was in the range 100–200 nM, concentration of substrate was 1 mM, and concentrations of DC1 were varied between 0 and 200 µM. Before starting the measurement, the enzyme was pre-incubated with different concentrations of DC1 for 5 min, and then delivered into the sample cell (210 µL). The hydrolysis reaction in the absence of inhibitors was also determined as a control. The stirring rate of the syringe was set to 750 rpm. The system was equilibrated at the desired 25 °C. […] Heat flow was recorded as a function of time. Data were collected every 1 s until the signal reached the baseline and continued to be recorded for the length of time necessary to generate the final baseline.
Isothermal titration calorimetry (ITC) was also employed, to identify the inhibition of the dithiocarbamates on MβLs and study their thermodynamic behaviour. […]

The target of data set [3] is T1, ImiS. Briefly: Inhibitor reversibility, activity recovery after rapid 100-fold dilution. In kind it is biochemical, Aeromonas veronii bv. sobria. To be noted: 5.0 μM enzyme, 0.7 μM inhibitor, 10 min pre-incubation. On the procedure:
It can be observed in Figure 4d–f that the Q value remains almost unchanged in the presence or absence of inhibitors, likely because the formation of the enzyme-inhibitor complex (EI), that slowed down substrate hydrolysis, was reversible. […] We assayed the binding reversibility of DC1 to MβLs by measuring the enzymatic activity recovery after a large, rapid dilution of the MβL-DC1 complex.
Determination of inhibitor reversibility
NDM-1, ImiS and L1 were incubated at a concentration of 1.3, 5.0 and 5.8 μM, which is 100-fold over the concentration required for the activity assay, with DC1 at a concentration of 1.5, 0.7 and […]
After 10 minutes pre-incubation, the recovery of enzymatic activity was determined after rapid and large dilution (100-fold) with the reaction […]
Figure S2. Recovery of NDM-1 (a), ImiS (b) and L1 (c) activity after rapid dilution of the enzyme-inhibitor complex. The curve in black refers to the control sample pre-incubated and diluted in the absence of inhibitor. Curves in red refer to MβLs pre-incubated with DC1. […]

The target in a further data set is T2, NDM-1 (Klebsiella pneumoniae, UniProt C7C422).
T2 construct: made in house; host or cells: E. coli BL21 (DE3), plasmid pET26b-NDM-1
The data set is described as follows: Time-dependence inhibition experiment, residual activity. The data set is classed as biochemical. To be noted: 13 nM NDM-1 incubated with inhibitor at its IC50 for 8 h.

Data set [4] deals with mouse fibroblast cells (L-929). Briefly: Cytotoxicity assay (MTT). The data set is classed as cell-based. To be noted: concentration as high as 250 μM, 48 h. On the procedure:
The cytotoxicity assays were performed to evaluate the toxicity of DC1, DC3, DC7 and DC9 in mouse fibroblast cells (L-929). The cells were seeded into 96-well plates at a cell density of 1.0 × 10^4 cells/well, in 100 μL of culture medium and maintained for 24 h. Then, the inhibitors with working concentrations (15.6, 31.25, 62.5, 125, 250, and 500 μM) were added to the 96-well plates and incubated for another 48 h. Three wells containing only cells were suspended in a mixture solution of 98 μL complete medium, as controls for cell viability without inhibitors. Three wells containing only the complete medium were used as blank controls. Following that, the medium was removed, and 100 μL of fresh culture medium and 10 μL MTT were added to each well. After incubation for 4 h, the trays were then vigorously shaken to solubilize the formed product, and the absorbance, at a wavelength of 490 nm, was read on a microplate reader and analyzed. All experiments were conducted in triplicate, and the data are expressed as mean ± standard deviation.
The potential toxicity of dthiocarbamates DC1, DC3, DC7 and DC9 as representatives was assayed using the mouse fibroblast cells (L929) treated with different concentrations of inhibitors (15.625, 31.25, 62.5, 125, 250 and 500 μM).

T1 sequence (O31272 28-255 limits assumed): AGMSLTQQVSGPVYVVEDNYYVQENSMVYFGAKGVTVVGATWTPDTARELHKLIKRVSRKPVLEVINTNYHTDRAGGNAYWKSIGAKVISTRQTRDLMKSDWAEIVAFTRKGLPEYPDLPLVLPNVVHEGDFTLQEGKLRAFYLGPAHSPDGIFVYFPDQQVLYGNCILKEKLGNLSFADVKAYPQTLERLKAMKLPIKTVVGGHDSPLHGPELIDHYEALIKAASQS
T2 sequence (C7C422 29-270 limits assumed): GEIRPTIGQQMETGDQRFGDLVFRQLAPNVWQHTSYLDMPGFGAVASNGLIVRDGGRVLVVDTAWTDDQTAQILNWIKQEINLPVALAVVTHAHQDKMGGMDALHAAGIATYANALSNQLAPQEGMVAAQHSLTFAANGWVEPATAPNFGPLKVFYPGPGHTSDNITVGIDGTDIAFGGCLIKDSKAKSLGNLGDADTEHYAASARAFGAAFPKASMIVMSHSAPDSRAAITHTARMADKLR

On to `O=C(NNC(=S)[S][K])c1ccccc1O` [DC1], for which the inhibition at 40 µM at ImiS [1] was greater than 90%. For the same molecule, on ImiS [2], the “reversibility of inhibition of ImiS by ITC (total heat Q constant)” value was “reversible”. In addition, at ImiS [3], the “reversibility, recovery of ImiS activity after rapid dilution” value is listed as “reversible inhibitor”. Besides, the “time dependence of NDM-1 inhibition (residual activity)” value on NDM-1 was “no time-dependent inhibition”. Moreover, the “survival rate of L929 mouse cells” value in data set [4] is on record as “higher than 80%”.
